Source: ChEMBL document CHEMBL5505993, “Identification of a ferritinophagy inducer via sinomenine modification for the treatment of colorectal cancer” (Eur J Med Chem, 2024)
The source made the active and inactive calls. The calls are words filed in the database; no cut-off is given here.

Legend:
HCT-116 [1] = assay: Antitumor activity against human HCT-116 cells xenografted in BALB/c mouse assessed as presence of pyknotic nucleus at 30 mg/kg,ip administrated daily for 14 days by hematoxylin and eosin staining based microscopic analysis; type: functional, organism-based; conditions: time 14.0 day
HCT-116 [2] = assay: Induction of ferroptosis in human HCT-116 cells assessed as effect on ACSL4 protein expression at 5 to 20 uM incubated for 12 hrs by Western blotting analysis; type: functional, cell-based; conditions: dose 5-20 µM
HCT-116 [3] = assay: Antitumor activity against human HCT-116 cells xenografted in BALB/c mouse assessed as reduction in tumor density at 30 mg/kg,ip administrated daily for 14 days by hematoxylin and eosin staining based microscopic analysis; type: functional, organism-based; conditions: time 14.0 day
HCT-116 [4] = assay: Induction of ferroptosis in human HCT-116 cells assessed as increase in intracellular ferrous ion level at 20 uM incubated for 12 hrs in presence of ferroptosis inhibitor, Ferrostatin-1 by ferroOrange probe based flow cytometric analysis; type: functional, cell-based
HCT-116 [5] = assay: Induction of autophagy in human HCT-116 cells assessed as increase in intracellular ferrous ion level at 20 uM incubated for 12 hrs in presence of autophagy inhibitor, Bafilomycin A1 by Lyso tracker green staining based confocal microscopic analysis; type: functional, cell-based
[6] = Toxicity in BALB/c mouse xenografted with human HCT-116 cells assessed as histopathological changes in heart at 30 mg/kg,ip administrated daily for 14 days by hematoxylin and eosin staining based microscopic analysis; type: organism-based; conditions: in vivo, 336 h, time 14 day
[7] = Toxicity in BALB/c mouse xenografted with human HCT-116 cells assessed as histopathological changes in kidney at 60 mg/kg,ip administrated daily for 14 days by hematoxylin and eosin staining based microscopic analysis; type: organism-based; conditions: in vivo, 336 h, time 14 day
HCT-116 [8] = assay: Induction of ferroptosis in human HCT-116 cells assessed as increase in intracellular ferrous ion level at 20 uM incubated for 12 hrs in presence of ferroptosis inhibitor, deferoxamine mesylate by ferroOrange probe based flow cytometric analysis; type: functional, cell-based
HCT-116 [9] = assay: Induction of autophagy in human HCT-116 cells transfected with mRFP-GFP-LC3B assessed as formation of autolysosomes by measuring reduction in GFP to mRFP fluorescence ratio at 5 to 20 uM incubated for 12 hrs by Lyso tracker red staining based confocal fluorescence microscopic analysis; type: functional, cell-based; conditions: dose 5-20 µM
HCT-116 [10] = assay: Induction of ferroptosis in human HCT-116 cells assessed as increase in intracellular ferrous ion level incubated for 12 hrs by ferroOrange probe based flow cytometric analysis; type: functional, cell-based
HCT-116 [11] = assay: Induction of autophagy in human HCT-116 cells assessed as increase in 4-HNE level at 20 uM incubated for 12 hrs by ELISA; type: functional, cell-based
[12] = Toxicity in BALB/c mouse xenografted with human HCT-116 cells assessed as change in body weight at 60 mg/kg,ip administrated daily for 14 days; type: organism-based; conditions: in vivo, 336 h, time 14 day
HCT-116 [13] = assay: Induction of ROS production in human HCT-116 cells incubated for 12 hrs by DCFH-DA probe based flow cytometry; type: functional, cell-based
HCT-116 [14] = assay: Induction of ferroptosis in human HCT-116 cells assessed as effect on p53 protein expression at 5 to 20 uM incubated for 12 hrs by Western blotting analysis; type: functional, cell-based; conditions: dose 5-20 µM
HCT-116 [15] = assay: Antitumor activity against human HCT-116 cells xenografted in BALB/c mouse assessed as increase in FTH1 expression at 60 mg/kg,ip administrated daily for 14 days by immunohistochemistry; type: functional, organism-based; conditions: time 14.0 day
HCT-116 [16] = assay: Antitumor activity against human HCT-116 cells xenografted in BALB/c mouse assessed as increase in FTH1 expression at 30 mg/kg,ip administrated daily for 14 days by immunohistochemistry; type: functional, organism-based; conditions: time 14.0 day
HCT-116 [17] = assay: Cytotoxicity against human HCT-116 cells assessed as inhibition of cell growth incubated for 12 to 48 hrs by CCK-8 assay; type: functional, cell-based; conditions: time 12-48 hrs
HCT-116 [18] = assay: Induction of ferroptosis in human HCT-116 cells assessed as effect on SLC7A11 protein expression at 5 to 20 uM incubated for 12 hrs by Western blotting analysis; type: functional, cell-based; conditions: dose 5-20 µM
[19] = Toxicity in BALB/c mouse xenografted with human HCT-116 cells assessed as change in body weight at 30 mg/kg,ip administrated daily for 14 days; type: organism-based; conditions: in vivo, 336 h, time 14 day
HCT-116 [20] = assay: Induction of ferroptosis in human HCT-116 cells assessed as increase in 4-HNE level in presence of Ferrostatin-1 at 20 uM by ELISA; type: functional, cell-based
HCT-116 [21] = assay: Antitumor activity against human HCT-116 cells xenografted in BALB/c mouse assessed as tumor cell rupture at 30 mg/kg,ip administrated daily for 14 days by hematoxylin and eosin staining based microscopic analysis; type: functional, organism-based; conditions: time 14.0 day
HCT-116 [22] = assay: Antitumor activity against human HCT-116 cells xenografted in BALB/c mouse assessed as reduction in tumor growth at 30 mg/kg,ip administrated daily for 14 days; type: functional, organism-based; conditions: time 14.0 day
HT-29 = assay: Cytotoxicity against human HT-29 cells assessed as inhibition of cell growth incubated for 48 hrs by CCK-8 assay; type: functional, cell-based; conditions: HT-29, 48 h
HCT-116 [23] = assay: Antitumor activity against human HCT-116 cells xenografted in BALB/c mouse assessed as reduction in tumor volume at 30 mg/kg,ip administrated daily for 14 days; type: functional, organism-based; conditions: time 14.0 day
HCT-116 [24] = assay: Induction of ferritin autophagy in human HCT-116 cells assessed as upregulation of ratio of LC3B-II to LC3B-I protein expression at 5 to 20 uM incubated for 12 hrs by Western blotting analysis; type: functional, cell-based; conditions: dose 5-20 µM
[25] = Cytotoxicity against human NCM460 cells assessed as inhibition of cell growth incubated for 48 hrs by CCK-8 assay; type: toxicity, cell-based
HCT-116 [26] = assay: Cytotoxicity against human HCT-116 cells assessed as inhibition of cell growth incubated for 12 hrs by CCK-8 assay; type: functional, cell-based; conditions: HCT-116, 12 h
[27] = Toxicity in BALB/c mouse xenografted with human HCT-116 cells assessed as histopathological changes in spleen at 30 mg/kg,ip administrated daily for 14 days by hematoxylin and eosin staining based microscopic analysis; type: organism-based; conditions: in vivo, 336 h, time 14 day
HCT-116 [28] = assay: Induction of autophagy in human HCT-116 cells assessed as increase in 4-HNE level at 20 uM incubated for 12 hrs in presence of autophagy inhibitor, Bafilomycin A1 by ELISA; type: functional, cell-based
HCT-116 [29] = assay: Induction of ferroptosis in human HCT-116 cells assessed as increase in intracellular lipid ROS accumulation at 20 uM incubated for 12 hrs in presence of ferroptosis inhibitor, deferoxamine mesylate by C11 BODIPY probe based flow cytometry; type: functional, cell-based
HCT-116 [30] = assay: Cytotoxicity against human HCT-116 cells assessed as inhibition of cell growth incubated for 24 hrs by CCK-8 assay; type: functional, cell-based; conditions: HCT-116, 24 h
HCT-116 [31] = assay: Induction of ferroptosis in human HCT-116 cells assessed as increase in 4-HNE level in presence of deferoxamine mesylate at 20 uM by ELISA; type: functional, cell-based
HCT-116 [32] = assay: Induction of ferritin autophagy in human HCT-116 cells assessed as upregulation of NCOA4 protein expression at 5 to 20 uM incubated for 12 hrs by Western blotting analysis; type: functional, cell-based; conditions: dose 5-20 µM
HCT-116 [33] = assay: Induction of ferritin autophagy in human HCT-116 cells assessed as upregulation of FTH1 protein expression at 20 uM incubated for 12 hrs in presence of autophagy inhibitor, Bafilomycin A1 by Western blotting analysis; type: functional, cell-based
HCT-116 [34] = assay: Induction of ferroptosis in human HCT-116 cells assessed as increase in 4-HNE level at 20 uM by ELISA; type: functional, cell-based

## C=C(Cl)C(=O)NCCCCCCCCCCCC(=O)Oc1c(OC)ccc2c1[C@@]13CCN(C)[C@@H](C2)[C@H]1C=C(OC)C(=O)C3
HCT-116 [1]
  Activity: Active
HCT-116 [2]
  Activity: inactive
HCT-116 [3]
  Activity: Active
HCT-116 [4]
  Activity: inactive
HCT-116 [5]
  Activity: inactive
[6]
  Activity: Non-Toxic
[7]
  Activity: Non-Toxic
HCT-116 [8]
  Activity: inactive
HCT-116 [9]
  Activity: Active
HCT-116 [10]
  Activity: Dose-Dependent Effect
HCT-116 [11]
  Activity: Active
[12]
  Activity: Non-Toxic
HCT-116 [13]
  Activity: Active
HCT-116 [14]
  Activity: inactive
HCT-116 [15]
  Activity: Active
HCT-116 [16]
  Activity: Active
HCT-116 [17]
  Activity: Dose-Dependent Effect
HCT-116 [18]
  Activity: inactive
[19]
  Activity: Non-Toxic
HCT-116 [20]
  Activity: inactive
HCT-116 [21]
  Activity: Active
HCT-116 [22]
  Activity: Active
HT-29
  IC50: 6.71 µM
HCT-116 [23]
  Activity: Active
HCT-116 [24]
  Activity: Active
[25]
  IC50 at 48 h: 19 µM
HCT-116 [26]
  IC50: 15.1 µM
[27]
  Activity: Non-Toxic
HCT-116 [28]
  Activity: inactive
HCT-116 [29]
  Activity: Active
HCT-116 [30]
  IC50: 11.2 µM
HCT-116 [31]
  Activity: inactive
HCT-116 [32]
  Activity: inactive
HCT-116 [33]
  Activity: inactive
HCT-116 [34]
  Activity: Active
